Reference: ChEMBL document CHEMBL1255530, “3D-QSAR CoMFA study of benzoxazepine derivatives as mGluR5 positive allosteric modulators” (Bioorg Med Chem Lett, 2010)
pEC50: −log10 of the molar value.

biological target: Metabotropic glutamate receptor 5 (Rattus norvegicus, UniProt P31424); assay: Positive allosteric modulation of rat mGluR5 expressed in HEK293 cells
Sequence (P31424 whole entry): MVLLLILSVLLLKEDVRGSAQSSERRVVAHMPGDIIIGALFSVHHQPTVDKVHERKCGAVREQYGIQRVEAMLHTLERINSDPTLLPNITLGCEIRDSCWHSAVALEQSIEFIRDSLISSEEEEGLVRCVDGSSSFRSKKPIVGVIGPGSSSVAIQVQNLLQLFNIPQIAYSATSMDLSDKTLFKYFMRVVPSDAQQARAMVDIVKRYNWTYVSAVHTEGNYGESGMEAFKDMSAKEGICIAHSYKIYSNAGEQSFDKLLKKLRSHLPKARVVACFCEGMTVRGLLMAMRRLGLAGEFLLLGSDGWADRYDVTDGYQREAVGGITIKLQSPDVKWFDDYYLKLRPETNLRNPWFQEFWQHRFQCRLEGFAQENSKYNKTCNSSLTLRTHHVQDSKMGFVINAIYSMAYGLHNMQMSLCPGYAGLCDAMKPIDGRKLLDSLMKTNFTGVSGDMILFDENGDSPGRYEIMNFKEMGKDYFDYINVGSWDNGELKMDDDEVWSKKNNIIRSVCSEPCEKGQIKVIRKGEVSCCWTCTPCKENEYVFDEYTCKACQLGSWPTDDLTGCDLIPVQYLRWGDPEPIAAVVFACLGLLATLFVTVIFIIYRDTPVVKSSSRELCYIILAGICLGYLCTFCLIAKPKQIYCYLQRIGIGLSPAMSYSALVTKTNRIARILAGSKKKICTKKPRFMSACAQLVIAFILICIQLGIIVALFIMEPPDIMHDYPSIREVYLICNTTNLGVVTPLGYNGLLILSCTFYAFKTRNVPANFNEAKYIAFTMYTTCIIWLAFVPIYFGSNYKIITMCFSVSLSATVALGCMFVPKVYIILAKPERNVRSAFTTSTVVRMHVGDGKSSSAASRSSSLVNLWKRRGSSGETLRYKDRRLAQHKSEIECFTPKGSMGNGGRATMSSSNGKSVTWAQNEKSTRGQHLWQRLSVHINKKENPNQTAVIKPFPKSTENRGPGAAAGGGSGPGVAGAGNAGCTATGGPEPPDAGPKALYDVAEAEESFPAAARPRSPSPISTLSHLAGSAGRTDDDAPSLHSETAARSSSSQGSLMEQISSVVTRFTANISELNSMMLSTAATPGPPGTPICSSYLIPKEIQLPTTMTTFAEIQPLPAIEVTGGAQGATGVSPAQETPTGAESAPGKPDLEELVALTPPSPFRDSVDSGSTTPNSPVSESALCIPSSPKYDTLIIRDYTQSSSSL

Row | Compound | pEC50
1 | CCSc1nnc2c(n1)O[C@@H](c1ccc(C)s1)N(C(C)=O)c1ccccc1-2 | 5.92
2 | CCSc1nnc2c(n1)O[C@@H](c1ccc(OC(C)=O)cc1)N(C(C)=O)c1ccccc1-2 | 6.09
3 | CCSc1nnc2c(n1)O[C@@H](c1cc(Cl)ccc1OC(C)=O)N(C(C)=O)c1ccccc1-2 | 5.80
4 | C=CCSc1nnc2c(n1)O[C@@H](c1ccc(OCC)c(OC)c1)N(C(C)=O)c1ccccc1-2 | 6.16
5 | C=CCSc1nnc2c(n1)O[C@@H](/C=C/c1ccccc1)N(C(C)=O)c1ccccc1-2 | 5.77
6 | C=CCSc1nnc2c(n1)O[C@@H](c1cc(Br)c(OC(C)=O)c(OC)c1)N(C(C)=O)c1ccccc1-2 | 5.48
7 | CSc1nnc2c(n1)O[C@@H](c1cccn1C)N(C(C)=O)c1ccccc1-2 | 5.02
8 | CCSc1nnc2c(n1)O[C@@H](c1cc(Br)ccc1OC)N(C(C)=O)c1ccccc1-2 | 6.92
9 | CCC(=O)N1c2ccccc2-c2nnc(SC)nc2O[C@H]1c1cc(Cl)c(OC)c(OC)c1 | 5.92
10 | CSc1nnc2c(n1)O[C@@H](c1c(C)[nH]c3ccccc13)N(C(C)=O)c1ccccc1-2 | 5.39
11 | C=CCSc1nnc2c(n1)O[C@@H](c1cc(C)ccc1OC(C)=O)N(C(C)=O)c1ccccc1-2 | 6.05
12 | CCSc1nnc2c(n1)O[C@@H](c1ccc(OC)c(Br)c1)N(C(C)=O)c1ccccc1-2 | 6.02
13 | CSc1nnc2c(n1)O[C@@H](c1ccc(C)cc1)N(C(C)=O)c1ccccc1-2 | 5.56
14 | CSc1nnc2c(n1)O[C@@H](c1ccc(OC(C)=O)c(Br)c1)N(C(C)=O)c1ccccc1-2 | 5.42
15 | CSc1nnc2c(n1)O[C@H](c1cn(C(C)=O)c3ccccc13)N(C(C)=O)c1ccccc1-2 | 6.06
16 | COc1ccc(OC)c([C@@H]2Oc3nc(SC)nnc3-c3ccccc3N2C(C)=O)c1 | 6.05
17 | C=CCOc1ccc([C@@H]2Oc3nc(SCC=C)nnc3-c3ccccc3N2C(C)=O)cc1 | 5.92
18 | C=CCSc1nnc2c(n1)O[C@@H](c1sccc1C)N(C(C)=O)c1ccccc1-2 | 6.34
19 | CCOc1cc([C@@H]2Oc3nc(SC)nnc3-c3ccccc3N2C(=O)CC)cc(Br)c1OC | 5.15
20 | C=CCSc1nnc2c(n1)O[C@@H](c1ccc(C)s1)N(C(C)=O)c1ccccc1-2 | 6.48
21 | CCC(=O)N1c2ccccc2-c2nnc(SC)nc2O[C@H]1c1cc2c(cc1Cl)OCO2 | 5.28
22 | CCC(=O)N1c2ccccc2-c2nnc(SC)nc2O[C@H]1c1cc(Br)c(OC)c(OC)c1 | 5.91
23 | CCSc1nnc2c(n1)O[C@H](c1cc3c(cc1Br)OCO3)N(C(C)=O)c1ccccc1-2 | 5.37
24 | CSc1nnc2c(n1)O[C@@H](c1ccc(Br)cc1)N(C(C)=O)c1ccccc1-2 | 5.82

Row | Compound | pEC50
25 | CCSc1nnc2c(n1)O[C@@H](c1ccc(OC)cc1OC)N(C(C)=O)c1ccccc1-2 | 6.31
26 | CSc1nnc2c(n1)O[C@@H](c1cccc(C)n1)N(C(C)=O)c1ccccc1-2 | 5.12
27 | C=CCSc1nnc2c(n1)O[C@@H](c1cccnc1)N(C(C)=O)c1ccccc1-2 | 6.08
28 | CSc1nnc2c(n1)O[C@@H](c1ccc(Cl)cc1)N(C(C)=O)c1ccccc1-2 | 5.68
29 | COc1ccc([C@@H]2Oc3nc(SC)nnc3-c3ccccc3N2C(C)=O)cc1 | 5.56
30 | CCSc1nnc2c(n1)O[C@@H](c1ccc(N(C)C)cc1)N(C(C)=O)c1ccccc1-2 | 5.37
31 | CCSc1nnc2c(n1)O[C@@H](c1ccc(OCc3ccccc3)cc1)N(C(C)=O)c1ccccc1-2 | 5.22
32 | C=CCSc1nnc2c(n1)O[C@@H](c1ccc(N(C)C)cc1)N(C(C)=O)c1ccccc1-2 | 5.50
33 | CCSc1nnc2c(n1)O[C@@H](c1cccc(C)c1OC(C)=O)N(C(C)=O)c1ccccc1-2 | 5.55
34 | C=CCOc1ccc([C@@H]2Oc3nc(SC)nnc3-c3ccccc3N2C(C)=O)cc1 | 5.59
35 | CCSc1nnc2c(n1)O[C@@H](/C=C/c1ccco1)N(C(C)=O)c1ccccc1-2 | 5.93
36 | CCSc1nnc2c(n1)O[C@@H](c1cc(OC(C)=O)ccc1Cl)N(C(C)=O)c1ccccc1-2 | 5.42
37 | CSc1nnc2c(n1)O[C@@H](c1cccc(Oc3ccccc3)c1)N(C(C)=O)c1ccccc1-2 | 5.53
38 | CCSc1nnc2c(n1)O[C@H](c1ccc(OC(C)=O)c(OC)c1)N(C(C)=O)c1ccccc1-2 | 6.00
39 | CCOc1cc([C@@H]2Oc3nc(SC)nnc3-c3ccccc3N2C(=O)CC)ccc1OC(=O)CC | 5.55
40 | CCSc1nnc2c(n1)O[C@@H](C)N(C(C)=O)c1ccccc1-2 | 4.86
41 | C=CCSc1nnc2c(n1)O[C@@H](c1cccs1)N(C(C)=O)c1ccccc1-2 | 6.50
42 | CCC(=O)N1c2ccccc2-c2nnc(SC)nc2O[C@H]1c1cc(OC)c(OC)c(OC)c1 | 6.08
43 | C=CCSc1nnc2c(n1)O[C@@H](c1ccc(OC)c(OC)c1OC)N(C(C)=O)c1ccccc1-2 | 5.11
44 | CSc1nnc2c(n1)O[C@@H](c1ccsc1)N(C(C)=O)c1ccccc1-2 | 5.99
45 | CCOc1cc([C@@H]2Oc3nc(SCC)nnc3-c3ccccc3N2C(C)=O)ccc1OC(C)=O | 5.71
46 | C=CCSc1nnc2c(n1)O[C@@H](/C=C/c1cccs1)N(C(C)=O)c1ccccc1-2 | 6.64
47 | CCCSc1nnc2c(n1)O[C@@H](c1cc(OC)c(OC)cc1Cl)N(C(C)=O)c1ccccc1-2 | 5.92

Results, then the compound that gave them:

Row | pEC50 | Compound
48 | 6.58 | CCCC(=O)N1c2ccccc2-c2nnc(SCC)nc2O[C@H]1c1cccs1
49 | 5.36 | CCSc1nnc2c(n1)O[C@@H](c1ccccn1)N(C(=O)CC)c1ccccc1-2
50 | 5.99 | CCCC(=O)N1c2ccccc2-c2nnc(SC)nc2O[C@H]1c1cccc(OC)c1
51 | 6.32 | CCCCSc1nnc2c(n1)O[C@@H](c1ccsc1)N(C(C)=O)c1ccccc1-2
52 | 6.16 | CCCCSc1nnc2c(n1)O[C@@H](c1cccn1C)N(C(C)=O)c1ccccc1-2
53 | 6.31 | CCCSc1nnc2c(n1)O[C@@H](c1ccncc1)N(C(C)=O)c1ccccc1-2
54 | 6.25 | CCC(=O)N1c2ccccc2-c2nnc(SC)nc2O[C@H]1c1ccccc1OC
55 | 5.17 | CCCSc1nnc2c(n1)O[C@@H](CC)N(C(C)=O)c1ccccc1-2
56 | 7.02 | C=CCSc1nnc2c(n1)O[C@@H](c1ccccc1)N(C(C)=O)c1ccccc1-2
57 | 5.74 | CCSc1nnc2c(n1)O[C@H](c1cccnc1)N(C(C)=O)c1ccccc1-2
58 | 5.70 | CCC(=O)N1c2ccccc2-c2nnc(SC)nc2O[C@H]1c1ccccc1C
59 | 5.52 | CSc1nnc2c(n1)O[C@@H](c1ccccc1C)N(C(C)=O)c1ccccc1-2
60 | 6.40 | CCOc1ccc(Br)cc1[C@@H]1Oc2nc(SC)nnc2-c2ccccc2N1C(=O)CC
61 | 5.69 | CCSc1nnc2c(n1)O[C@H](c1ccccc1C)N(C(C)=O)c1ccccc1-2
62 | 6.36 | C=CCSc1nnc2c(n1)O[C@@H](c1ccccn1)N(C(=O)CC)c1ccccc1-2
63 | 6.06 | CCCC(=O)N1c2ccccc2-c2nnc(SC)nc2O[C@H]1c1cccs1
64 | 6.21 | CCCCSc1nnc2c(n1)O[C@@H](c1cccc(C)n1)N(C(C)=O)c1ccccc1-2
65 | 5.90 | CCSc1nnc2c(n1)O[C@@H](c1cccn1C)N(C(=O)CC)c1ccccc1-2
66 | 6.51 | CCSc1nnc2c(n1)O[C@@H](c1cccs1)N(C(=O)CC)c1ccccc1-2
67 | 5.95 | CCCOc1ccccc1[C@@H]1Oc2nc(SCC)nnc2-c2ccccc2N1C(C)=O
68 | 5.28 | CSc1nnc2c(n1)O[C@@H](c1ccccn1)N(C(C)=O)c1ccccc1-2
69 | 5.74 | CSc1nnc2c(n1)O[C@@H](c1cn(C)c3ccccc13)N(C(C)=O)c1ccccc1-2
70 | 5.68 | CCCC(=O)N1c2ccccc2-c2nnc(SC)nc2O[C@H]1c1ccc(OC)cc1OC
71 | 5.87 | CCC(=O)N1c2ccccc2-c2nnc(SC)nc2O[C@H]1c1ccccc1Br
72 | 6.80 | CCCSc1nnc2c(n1)O[C@@H](c1ccccc1OC)N(C(C)=O)c1ccccc1-2

Row | pEC50 | Compound
73 | 5.95 | CCC(=O)N1c2ccccc2-c2nnc(SC)nc2O[C@H]1c1ccc(Br)s1
74 | 6.06 | CCSc1nnc2c(n1)O[C@@H](c1ccco1)N(C(C)=O)c1ccccc1-2
75 | 5.73 | CCCC(=O)N1c2ccccc2-c2nnc(SC)nc2O[C@H]1c1sccc1C
76 | 5.71 | CCC(=O)N1c2ccccc2-c2nnc(SC)nc2O[C@H]1c1ccc(C)s1
77 | 6.46 | CCCSc1nnc2c(n1)O[C@@H](c1cccn1C)N(C(C)=O)c1ccccc1-2
78 | 6.25 | C=CCSc1nnc2c(n1)O[C@@H](c1ccccn1)N(C(C)=O)c1ccccc1-2
79 | 5.49 | CCC(=O)Oc1ccc(Cl)cc1[C@@H]1Oc2nc(SC)nnc2-c2ccccc2N1C(=O)CC
80 | 5.71 | CCCC(=O)N1c2ccccc2-c2nnc(SC)nc2O[C@H]1c1cccc(C)n1
81 | 5.91 | CCOc1ccccc1[C@@H]1Oc2nc(SC)nnc2-c2ccccc2N1C(C)=O
82 | 5.63 | CCC(=O)N1c2ccccc2-c2nnc(SC)nc2O[C@H]1c1cccc(C)n1
83 | 5.65 | CCCC(=O)N1c2ccccc2-c2nnc(SC)nc2O[C@H]1c1ccc(C)o1
84 | 5.90 | CSc1nnc2c(n1)O[C@@H](c1cccc(F)c1)N(C(C)=O)c1ccccc1-2
85 | 5.88 | CCCSc1nnc2c(n1)O[C@H](c1ccccc1OC(C)=O)N(C(C)=O)c1ccccc1-2
86 | 6.19 | CCCSc1nnc2c(n1)O[C@@H](c1ccccc1F)N(C(=O)CC)c1ccccc1-2
87 | 6.29 | CCCCSc1nnc2c(n1)O[C@@H](c1cccc(F)c1)N(C(C)=O)c1ccccc1-2
88 | 6.17 | CCSc1nnc2c(n1)O[C@@H](c1ccc(Cl)cc1)N(C(C)=O)c1ccccc1-2
89 | 5.95 | C=CCSc1nnc2c(n1)O[C@@H](c1ccccc1F)N(C(C)=O)c1ccccc1-2
90 | 5.43 | CCCCOc1ccccc1[C@@H]1Oc2nc(SC)nnc2-c2ccccc2N1C(=O)CC
91 | 6.97 | CCSc1nnc2c(n1)O[C@@H](c1cccc(OC)c1)N(C(=O)CC)c1ccccc1-2
92 | 5.37 | CCC(=O)N1c2ccccc2-c2nnc(SC)nc2O[C@H]1c1ccco1
93 | 5.86 | CCOc1cc([C@@H]2Oc3nc(SC)nnc3-c3ccccc3N2C(=O)CC)ccc1OC
94 | 7.24 | C=CCSc1nnc2c(n1)O[C@@H](c1cccs1)N(C(=O)CC)c1ccccc1-2
95 | 5.44 | CCC(=O)N1c2ccccc2-c2nnc(SC)nc2O[C@H]1c1ccc(OC)c(C)c1
96 | 5.44 | CCC(=O)Oc1ccc([C@@H]2Oc3nc(SC)nnc3-c3ccccc3N2C(=O)CC)cc1
97 | 6.72 | CCC(=O)N1c2ccccc2-c2nnc(SC)nc2O[C@H]1c1cc(OC)ccc1OC
